{
  "source": "patent US6946259B2",
  "about": "“Compositions and methods for treating cells having double minute DNA” (The Salk Institute For Biological Studies, priority 1998, dated 2005)",
  "key": {"[1]": {"system": "COLO 320DM cells", "assay": "Quantification of c-myc+ (DM-containing) micronuclei in COLO 320DM cells by FISH", "assay_type": "cell-based, human", "conditions": "for micronucleation (frequency of c-myc+ micronuclei): COLO 320DM cells treated for 3 days; for micronucleation efficiency at concentrations that severely inhibited S-phase: COLO 320DM cells, 3 days, high drug concentrations", "experimental": "(§1) FIGS. 3A and 3B show the effects of various drugs on induction of micronuclei and cell cycle distribution. COLO 320DM cells were treated for 3 days with inhibitors of DNA replication (aphidicolin (“APH”); deferoxamine (“Def”), guanazole (“Gua”); hydroxurea (“HU”); and PALA), repair (coumarin (“Cou”); nicotinamide (“NA”)) or the membrane active agent DMSO at the concentrations indicated. In FIG. 3A, the treated cells were fixed with methanol/acetic acid and hybridized with c-myc cosmid probe. The numbers of micronuclei that were stained brightly with c-myc probe were scored and expressed as “frequency of c-myc^+ micronuclei (%)” relative to the number of interphase nuclei scored (more than 1000 for each point). In FIG. 3B, the cells were pulse-labeled with BrdU (for 30 min) at the end of the drug treatment, and analyzed by flow cytometry as described below to determine the fraction of cells in G1, S, and G2/M.\nMicronuclei containing DM sequences in COLO 320DM cells (FIGS. 2 and 3) were detected by preparing chromosome spreads using standard hypotonic swelling conditions (Lawce and Brown (1991)), followed by hybridization with a biotinylated c-myc cosmid probe as described previously (Shimizu, et al. (1996)). Total micronuclei (FIG. 3) were determined by staining chromosome spreads with DAPI (Sigma; 1 μg/ml in VectaShield, Vector Inc.). The adherent cells (WS1, RPE-h and their derivatives) were grown on cover slips, fixed with cold acetone (−20° C. for 5 min) followed by cold methanol (−20° C. for 5 min), re-hydrated with PBS and stained with DAPI (1 μg/ml in VectaShield). The numbers of total or DM-enriched micronuclei were scored using 60× or 100× objectives and Zeiss fluorescence microscope equipped with appropriate epifluorescence filters. The results are expressed as “Frequency of micronuclei (%)” relative to the number of interphase nuclei scored (at least 1000 for each point)."}, "[2]": {"system": "COLO 320DM cells", "assay": "Localization of DMs in interphase nuclei by FISH and confocal microscopy", "assay_type": "cell-based, human", "conditions": "100 μM HU for 3 days", "experimental": "Preparation of probe from purified micronuclei was as described (Shimizu, et al. (1996)), except that DNA in the purified micronuclei was directly used for biotin-labeling by using BioPrime DNA Labeling System (Life Technologies Inc. Gaithersburg, Md.). FISH using standard methanol/acetic acid-fixed nuclei was performed as described previously (Shimizu, et al. (1996)). Assessments of DM localization by confocal microscopy required the following procedure to preserve the spherical shape of the nuclei. This protocol, based on that developed for human lymphocytes (Ferguson and Ward (1992) and Vourc'h, et al. (1993)), could not be applied directly to COLO 320DM due to severe nuclear aggregation. The modified procedure involves pelleting 10 ml of COLO 320DM cells by centrifugation at 260×g for 5 min, followed by complete removal of the supernatant. […] The acquired digital images were expressed as pseudocolors, and merged using Adobe Photoshop (Adobe Systems Inc., Mountain View, Calif.).\nThe locations of DMs in confocal nuclear sections were determined by measuring the distance from each of the hybridized signals to the center of the nucleus using the corresponding nuclear diameter as a unit length. […] The distances from this dot to the center of the nucleus and the nuclear diameter were determined. […] At the same time, the intensity of each signal was measured using an arbitrary unit scale. […]"}, "[3]": {"system": "WS1 human diploid fibroblasts", "assay": "Frequency of micronuclei (DAPI) in WS1 normal diploid fibroblasts", "assay_type": "cell-based", "conditions": "WS1 cells, drug for 3 days", "experimental": "(§2) Wild type (wt) WS1 human diploid fibroblasts, or transformants expressing the neomycin resistance gene (neo) or both neo and the human papilloma virus E6 protein (E6) were generated by retroviral transduction. These cells were cultured in the absence or the presence of HU or PALA at the indicated concentrations for 3 days. […] The number of micronuclei were scored and expressed as the frequency of micronuclei (%) relative to the number of interphase nuclei scored (more than 1000 for each point). In FIG. 7B, cell cycle effects of these drugs were examined as in FIG. 2B. […] In FIG. 7C, progression through S-phase or M-phase was monitored by the incorporation of [^3H]thymidine (closed symbols) or the fraction of mitotic cells determined by microscopic detection of metaphase figures (open symbols). In FIG. 7D, the cells on the cover slips were fixed, stained with DAPI, and the frequencies of micronuclei relative to the number of interphase nuclei were scored. More than 500 nuclei were counted for each point and the results are expressed as mean±S.D for WS1 neo and WS1-E6 cells (3 independent determinations for each strain; the error bars for WS1 neo data points were smaller than the sizes of the symbols). Nuclear budding frequencies were determined on the same slides as used to determine micronucleation index (more than 1000 nuclei for each point). […]"}, "[4]": {"system": "COLO 320DM cells", "assay": "DM content per cell by competitive PCR amplification", "assay_type": "cell-based, human", "conditions": "HU treatment, data not shown"}, "[5]": {"system": "human and rodent cell lines", "conditions": "cited from earlier work"}, "[6]": {"system": "WS1 E6 cells", "assay": "Frequency of micronuclei (DAPI) in WS1 E6 fibroblasts", "assay_type": "cell-based, human", "conditions": "WS1 fibroblasts expressing E6, drug for 3 days", "experimental": "as §2"}, "[7]": {"system": "WS1 E6 cells", "assay": "Cell cycle distribution of WS1 E6 fibroblasts by flow cytometry", "assay_type": "cell-based, human", "conditions": "WS1 fibroblasts expressing E6, drug for 3 days", "experimental": "as §2"}, "[8]": {"system": "COLO 320DM cells", "assay": "Apoptosis in COLO 320DM cells (TUNEL assay)", "assay_type": "cell-based, human", "conditions": "COLO 320DM cultures, prolonged incubation", "experimental": "TUNEL assay was done according to a previously published procedure (Gavrieli, et al. (1992)) and modified as described below. In brief, COLO 320DM cells were fixed in 2% PFA (10 min at room temperature), and centrifuged onto a glass slide using a cytospin apparatus. The cells were further fixed in cold methanol (−20° C., 5 min) followed by cold acetone (−20° C., 5 min). The slides were rehydrated in PBS, then equilibrated in reaction buffer (200 mM sodium cacodylate, 1 mM MgCl2, 1 mM β-mercaptoethanol, pH 7.2) for 15 min at room temperature. The end-labeling reaction was done by incubating the slides with the reaction buffer containing 10 μM biotin-dUTP (Boehringer Mannheim GmbH, Germany), and 0.3 units/μl of terminal deoxynucleotidyl transferase (Toyobo Co., Osaka, Japan), for 60 min at 37° C. The slides were washed extensively, blocked with 20% FCS, and the incorporated biotin was detected using FITC conjugated streptavidin as in the protocol for FISH (see below). The slides were treated with RNAse A (100 μg/ml 37° C., for 20 min), counterstained with PI, and observed under the conditions used for FISH."}, "[9]": {"system": "WS1 human diploid fibroblasts", "assay": "Cell cycle distribution of WS1 fibroblasts by flow cytometry", "assay_type": "cell-based", "conditions": "WS1 cells, drug for 3 days", "experimental": "as §2"}, "[10]": {"system": "COLO 320DM cells", "assay": "Cell cycle distribution of COLO 320DM cells by BrdU/PI flow cytometry", "assay_type": "cell-based, human", "conditions": "COLO 320DM cells treated for 3 days", "experimental": "as §1\nCell cycle distribution was analyzed using flow cytometry as described previously (Yin, et al. (1992) and Di Leonardo, et al. (1994)). Cells treated with the indicated concentrations of drugs for the indicated times were labeled with 10 μM BrdU for 30 min. […] Samples were analyzed using a Becton Dickinson FACScan. […] Data was analyzed using Sun Display as described previously (Yin, et al. (1992) and Di Leonardo, et al. (1994))."}},
  "note": "Entries after “also recorded” stand apart in the source; their conditions may differ. Structures can show the parent of a compound that is named as a salt.",
  "data": [
    {"smiles": "O=c1ccc2ccccc2o1", "note": "[Coumarin, 1,2-benzopyrone]", "values": [
      {"measurement": "micronucleation (frequency of c-myc+ micronuclei)", "setting": "[1]", "result": "no effect on micronucleation"}
    ]},
    {"smiles": "C[C@@]1(CO)[C@H](O)CC[C@@]2(C)[C@H]1CC[C@H]1C[C@@H]3C[C@@]12CC[C@]3(O)CO", "note": "[aphidicolin, Aphidicolin]", "values": [
      {"measurement": "micronucleation (frequency of c-myc+ micronuclei)", "setting": "[1]", "result": "substantial increases in micronucleation"}
    ]},
    {"smiles": "NC(=O)NO", "note": "[HU, hydroxyurea]", "values": [
      {"measurement": "nuclear position of DMs (peripheral localization)", "setting": "[2]", "result": "preferentially depleted DMs from the nuclear periphery; also recorded: Very few peripheral DMs were detected"},
      {"measurement": "micronucleation rate", "setting": "[3]", "result": "not increased"},
      {"measurement": "reduction of DM content per cell", "setting": "[4]", "result": "approximately 3 fold"},
      {"measurement": "loss rate of DMs", "setting": "[5]; human and rodent cell lines", "result": "significantly increase the loss rate of DMs"},
      {"measurement": "micronucleation rate", "setting": "[6]", "result": "substantial further increase in micronucleation rate"},
      {"measurement": "number of cells in S-phase", "setting": "[7]", "result": "significant increase in the number of cells in S-phase"},
      {"measurement": "apoptosis", "setting": "[8]", "result": "apoptotic cells did arise"},
      {"measurement": "micronucleation (frequency of c-myc+ micronuclei)", "setting": "[1]", "result": "substantial increases in micronucleation"},
      {"measurement": "cell cycle effect", "setting": "[9]", "result": "did not significantly affect the percentage of WS1 cells in S-phase"}
    ]},
    {"smiles": "NC(=O)c1cccnc1", "note": "[nicotinamide]", "values": [
      {"measurement": "cell cycle distribution (fraction of cells in G1, S, G2/M)", "setting": "[10]", "result": "significant increase in the G2 fraction"},
      {"measurement": "micronucleation (frequency of c-myc+ micronuclei)", "setting": "[1]", "result": "small increase"}
    ]},
    {"smiles": "C[S+](C)[O-]", "note": "[DMSO]", "values": [
      {"measurement": "DM copy number", "setting": "[5]; some tumor cell lines", "result": "reduce DM copy number"},
      {"measurement": "cell cycle distribution (fraction of cells in G1, S, G2/M)", "setting": "[10]", "result": "without lengthening S-phase"},
      {"measurement": "micronucleation (frequency of c-myc+ micronuclei)", "setting": "[1]", "result": "increased micronucleation"}
    ]},
    {"smiles": "Nc1n[nH]c(N)n1", "note": "[guanazole, 3,5-diamino-1,2,4-triazole]", "values": [
      {"measurement": "micronucleation (frequency of c-myc+ micronuclei)", "setting": "[1]", "result": "substantial increases in micronucleation"}
    ]},
    {"smiles": "CC(=O)N(O)CCCCCNC(=O)CCC(=O)N(O)CCCCCNC(=O)CCC(=O)N(O)CCCCCN", "note": "[deferoxamine, deferoxamine mesylate]", "values": [
      {"measurement": "micronucleation (frequency of c-myc+ micronuclei)", "setting": "[1]", "result": "substantial increases in micronucleation"},
      {"measurement": "micronucleation efficiency at concentrations that severely inhibited S-phase", "setting": "[1]", "result": "sharp decrease in micronucleation efficiency"}
    ]},
    {"smiles": "O=C(O)C[C@H](NC(=O)CP(=O)(O)O)C(=O)O", "note": "[PALA, N-phosphonacetyl-L-aspartate]", "values": [
      {"measurement": "micronucleation rate", "setting": "[3]", "result": "not increased"},
      {"measurement": "micronucleation rate", "setting": "[6]", "result": "substantial further increase in micronucleation rate"},
      {"measurement": "number of cells in S-phase", "setting": "[7]", "result": "significant increase in the number of cells in S-phase"},
      {"measurement": "micronucleation (frequency of c-myc+ micronuclei)", "setting": "[1]", "result": "substantial increases in micronucleation; also recorded: induces S-phase micronucleation"},
      {"measurement": "micronucleation efficiency at concentrations that severely inhibited S-phase", "setting": "[1]", "result": "sharp decrease in micronucleation efficiency"},
      {"measurement": "cell cycle effect", "setting": "[9]", "result": "induced a G1 cell cycle arrest"}
    ]}
  ]
}
